Test results taken from patent US20250042916A1 (ACONCAGUA BIO, INC., priority 2023, published 2025).

target: human calcitonin receptor (CTR) and RAMP3 (AMY3) in COS-7 cells (Homo sapiens, UniProt O60896+P30988); assay: Amylin Receptor cAMP Assay I; format: cell-based; conditions: values marked *: Amylin Receptor cAMP Assay I; COS-7/AMY3 cells; read-out: Amylin Receptor cAMP Stimulation Activity: EC50
Excerpt: Amylin Receptor cAMP Assay I
AMYRs are heterodimers of the class B calcitonin (CT) G-protein-coupled receptor (CTR) and receptor activity-modifying proteins (RAMPs). All three RAMPs can interact with the CTR and form AMY1, AMY2, AMY3 with RAMP1, RAMP2 and RAMP3, respectively. Like other class B1 GPCRs, the CT receptor family is canonically coupled to Gs-mediated cAMP production, and measurement of cAMP accumulation has been the primary assay used to determine peptide selectivity and potency.
To optimize functional activity directed toward Gas coupling, COS-7 cells were stably transfected with human calcitonin receptor (CTR) and RAMP3, simultaneously. 100× concentration of compound working solutions were prepared (Agilent Technologies Bravo) with 4-fold serial dilution in 384-well Echo LDV plate (Labcyte, Cat #LP-0200). 100 nL/well 100× concentration of compound working solutions were moved to 384-well white low volume plate (Greiner, Cat #784075) using Labcyte ECHO550. 1×10^5 cells/mL COS-7/CTR or COS-7/AMY3 (HD Biosciences) cell suspensions prepared with assay buffer [DPBS containing 0.5 mM IBMX (Sigma, Cat #15879) and 0.1% BSA (GENVIEW, Cat #FA016-100 g)], 10 μL cell suspensions were added to each well of previous generated assay plate which already contains 100 nL compound at 100× concentration using ThermoFisher Multidrop Combi (1000 cells/well). Seal the plate and incubate at 37° C. with 5% CO2 for 30 min.
After incubation, the cAMP assay signal was generated using cAMP Hi-range Kit (Cisbio). 5 μL cAMP-d2 working solution was added to each well, followed by 5 μL Anti-cAMP antibody-cryptate working solution which was added to each well using ThermoFisher Multidrop Combi. The samples were then incubated at room temperature for 1 hour protected from light. the fluorescence was read at 665 and 615 nm with Reader PerkinElmer EnVision.

Sequence of human calcitonin receptor (CTR) and RAMP3 (AMY3) in COS-7 cells (P30988 25-474): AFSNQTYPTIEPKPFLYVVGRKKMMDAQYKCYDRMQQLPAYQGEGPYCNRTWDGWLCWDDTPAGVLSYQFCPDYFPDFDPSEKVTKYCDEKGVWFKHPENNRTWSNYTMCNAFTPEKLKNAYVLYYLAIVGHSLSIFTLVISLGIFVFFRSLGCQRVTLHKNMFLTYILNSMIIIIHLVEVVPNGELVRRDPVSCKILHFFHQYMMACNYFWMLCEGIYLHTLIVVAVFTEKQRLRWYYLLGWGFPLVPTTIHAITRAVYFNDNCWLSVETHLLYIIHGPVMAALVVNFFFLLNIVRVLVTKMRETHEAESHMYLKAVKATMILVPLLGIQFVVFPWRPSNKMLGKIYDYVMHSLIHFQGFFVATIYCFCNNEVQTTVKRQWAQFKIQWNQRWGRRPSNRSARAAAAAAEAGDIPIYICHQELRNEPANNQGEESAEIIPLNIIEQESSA
Sequence of human calcitonin receptor (CTR) and RAMP3 (AMY3) in COS-7 cells (O60896 24-148): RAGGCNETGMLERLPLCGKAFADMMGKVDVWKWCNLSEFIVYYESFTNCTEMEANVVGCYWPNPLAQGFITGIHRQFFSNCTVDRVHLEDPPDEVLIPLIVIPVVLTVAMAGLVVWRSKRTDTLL

| EC50 [nM] | SMILES |
| --- | --- |
| 323 | COc1ccc(CNC(=O)c2ccc(-c3c(C(N)=O)c(CC(C)C)nc(CCc4ccc(F)cc4)c3-c3nnc(C)o3)s2)cc1 [Compound 114, N-(p-methoxyphenyl)methyl-5-{5-carbamoyl-2-[2-(p-fluorophenyl)ethyl]-6-isobutyl-3-(5-methyl-1,3,4-oxadiazol-2-yl)-4-pyridyl}-2-thenamide] |
| 9930 | Cc1nnc(-c2c(CCc3ccc(F)cc3)nc(CC(C)C)c(C(N)=O)c2-c2cc3c(N)cccc3s2)o1 [Compound 139, 4-(4-aminobenzo[b]thiophen-2-yl)-6-(4-fluorophenethyl)-2-isobutyl-5-(5-methyl-1,3,4-oxadiazol-2-yl)nicotinamide] |
| 11.5 | Cc1ncc(-c2c(CCc3ccc(F)cc3)nc(CC(C)C)c(C(N)=O)c2-c2ccc(C(=O)NCc3ccc(F)c(F)c3)s2)o1 [Compound 152, N-(3,4-difluorophenyl)methyl-5-{5-carbamoyl-2-[2-(p-fluorophenyl)ethyl]-6-isobutyl-3-(2-methyl-1,3-oxazol-5-yl)-4-pyridyl}-2-thenamide] |
| 59.7 | Cc1ccc(-c2c(CCc3ccc(F)cc3)nc(CC(C)C)c(C(N)=O)c2-c2ccc(C(=O)NCc3ccc(F)c(F)c3)s2)cn1 [Compound 171, 4-(5-((3,4-difluorobenzyl)carbamoyl)thiophen-2-yl)-2-(4-fluorophenethyl)-6-isobutyl-6′-methyl-[3, 3′-bipyridine]-5-carboxamide] |
| 381 | Cc1nnc(-c2c(CCc3ccc(F)cc3)nc(CC(C)C)c(C(N)=O)c2-c2cc3ccnc(NCc4cccnc4)c3s2)o1 [Compound 201, 6-(4-fluorophenethyl)-2-isobutyl-5-(5-methyl-1,3,4-oxadiazol-2-yl)-4-(7-((pyridin-3-ylmethyl)amino)thieno[2,3-c]pyridin-2-yl)nicotinamide] |
| 50 | Cc1nnc(-c2c(CCc3ccc(F)cc3)nc(CC(C)C)c(C(N)=O)c2-c2ccc(CNC(=O)c3ccc(F)c(F)c3)s2)o1 [Compound 141] |
| 35.8 | Cc1nnc(-c2c(CCc3ccc(F)cc3)nc(CC(C)C)c(C(N)=O)c2-c2ccc(C(=O)N[C@H]3CCc4ncccc43)s2)o1 [Compound 124, (S)-4-(5-((6,7-dihydro-5H-cyclopenta[b]pyridin-5-yl)carbamoyl)thiophen-2-yl)-6-(4-fluorophenethyl)-2-isobutyl-5-(5-methyl-1,3,4-oxadiazol-2-yl)nicotinamide] |
| 3400 | Cc1nnc(-c2c(C34CC(C(F)(F)F)(C3)C4)nc(CC(C)C)c(C(N)=O)c2-c2ccc(C(=O)NCc3ccc(F)c(F)c3)s2)o1 [Compound 194, 4-(5-((3,4-difluorobenzyl)carbamoyl)thiophen-2-yl)-2-isobutyl-5-(5-methyl-1,3,4-oxadiazol-2-yl)-6-(3-(trifluoromethyl)bicyclo[1.1.1]pentan-1-yl)nicotinamide] |
| 444 | Cc1noc(-c2c(CCc3ccc(F)cc3)nc(CC(C)C)c(C(N)=O)c2-c2ccc(-c3cn(Cc4ccc(F)c(F)c4)nn3)s2)n1 [Compound 104, 4-(5-{1-[(3,4-difluorophenyl)methyl]-1H-1,2,3-triazol-4-yl}-2-thienyl)-6-[2-(p-fluorophenyl)ethyl]-2-isobutyl-5-(3-methyl-1,2,4-oxadiazol-5-yl)nicotinamide] |
| 112 | Cc1nnc(-c2c(C3CC3c3ccc(F)cc3)nc(CC(C)C)c(C(N)=O)c2-c2ccc(C(=O)NCc3ccc(F)c(F)c3)s2)o1 (centres unmarked) [Compound 178, 4-(5-((3,4-difluorobenzyl)carbamoyl)thiophen-2-yl)-6-(2-(4-fluorophenyl)cyclopropyl)-2-isobutyl-5-(5-methyl-1,3,4-oxadiazol-2-yl)nicotinamide] |
| 394 | Cc1nnc(-c2c(CCc3ccc(F)cc3)nc(CC(C)C)c(C(N)=O)c2-c2ccc3c(ccn3CC3CCc4ccccc43)c2)o1 (centres unmarked) [Compound 177, 4-(1-((2,3-dihydro-1H-inden-1-yl)methyl)-1H-indol-5-yl)-6-(4-fluorophenethyl)-2-isobutyl-5-(5-methyl-1,3,4-oxadiazol-2-yl)nicotinamide] |
| 3720 | Cc1nnc(-c2c(CCc3ccc(F)cc3)nc(CC(C)C)c(C(N)=O)c2N2CCC(C(=O)NCc3ccc(F)c(F)c3)C2)o1 (centres unmarked) [Compound 170, 4-(3-((3,4-difluorobenzyl)carbamoyl)pyrrolidin-1-yl)-6-(4-fluorophenethyl)-2-isobutyl-5-(5-methyl-1,3,4-oxadiazol-2-yl)nicotinamide] |
| 1 | Cc1nnc(-c2c(CCc3ccc(F)cc3)nc(CC(C)C)c(C(N)=O)c2-c2ccc(C(=O)N[C@@H]3CCc4ccc(F)cc43)s2)o1 [Compound 121, (R)-4-(5-((6-fluoro-2,3-dihydro-1H-inden-1-yl)carbamoyl)thiophen-2-yl)-6-(4-fluorophenethyl)-2-isobutyl-5-(5-methyl-1,3,4-oxadiazol-2-yl)nicotinamide] |
| 6.9 | Cc1nnc(-c2c(CCc3ccc(F)cc3)nc(CC(C)C)c(C(N)=O)c2-c2cc3c(NCc4ccc(F)c(F)c4)nccc3s2)o1 [Compound 133, 4-(4-((3,4-difluorobenzyl)amino)thieno[3,2-c]pyridin-2-yl)-6-(4-fluorophenethyl)-2-isobutyl-5-(5-methyl-1,3,4-oxadiazol-2-yl)nicotinamide] |
| 1910 | Cc1ccn(CCc2nc(CC(C)C)c(C(N)=O)c(-c3ccc(C(=O)NCc4ccc(F)c(F)c4)s3)c2-c2nnc(C)o2)n1 [Compound 183, 4-(5-((3,4-difluorobenzyl)carbamoyl)thiophen-2-yl)-2-isobutyl-5-(5-methyl-1,3,4-oxadiazol-2-yl)-6-(2-(3-methyl-1H-pyrazol-1-yl)ethyl)nicotinamide] |
| 40.2 | COc1cc(CNC(=O)c2ccc(-c3c(C(N)=O)c(CC(C)C)nc(CCc4ccc(F)cc4)c3-c3nnc(C)o3)s2)ccc1F [Compound 117, N-[(4-fluoro-3-methoxyphenyl)methyl]-5-{5-carbamoyl-2-[2-(p-fluorophenyl)ethyl]-6-isobutyl-3-(5-methyl-1,3,4-oxadiazol-2-yl)-4-pyridyl}-2-thenamide] |
| 49 | Cc1nnc(-c2c(CCc3ccc(F)cc3)nc(CC(C)C)c(C(N)=O)c2-c2cc3ccnc(NCc4ccc(F)c(F)c4)c3o2)o1 [Compound 130, 4-(7-{[(3,4-difluorophenyl)methyl]amino}-1-oxa-6-aza-2-indenyl)-6-[2-(p-fluorophenyl)ethyl]-2-isobutyl-5-(5-methyl-1,3,4-oxadiazol-2-yl)nicotinamide] |
| 138 | Cc1nnc(-c2c(CC3COc4ccccc4O3)nc(CC(C)C)c(C(N)=O)c2-c2ccc(C(=O)NCc3ccc(F)c(F)c3)s2)o1 (centres unmarked) [Compound 180, 4-(5-((3,4-difluorobenzyl)carbamoyl)thiophen-2-yl)-6-((2,3-dihydrobenzo[b][1,4]dioxin-2-yl)methyl)-2-isobutyl-5-(5-methyl-1,3,4-oxadiazol-2-yl)nicotinamide] |
| 6.7 | Cc1nnc(-c2c(CCc3ccc(F)cc3)nc(CC(C)C)c(C(N)=O)c2-c2cc3cccc(NCc4ccc(F)c(F)c4)c3s2)o1 [Compound 136, 4-(7-((3,4-difluorobenzyl)amino)benzo[b]thiophen-2-yl)-6-(4-fluorophenethyl)-2-isobutyl-5-(5-methyl-1,3,4-oxadiazol-2-yl)nicotinamide] |
| 650 | Cc1nnc(-c2c(CC(C)C)nc(CC(C)C)c(C(N)=O)c2-c2ccc(C(=O)NCc3ccc(F)c(F)c3)s2)o1 [Compound 111, 4-(5-((3,4-difluorobenzyl)carbamoyl)thiophen-2-yl)-2,6-diisobutyl-5-(5-methyl-1,3,4-oxadiazol-2-yl)nicotinamide] |
| 336 | Cc1nnc(-c2c(CCc3ccc(F)cc3)nc(OC(C)C)c(C(N)=O)c2-c2ccc(C(=O)NCc3ccc(F)c(F)c3)s2)o1 [Compound 167, 4-(5-((3,4-difluorobenzyl)carbamoyl)thiophen-2-yl)-6-(4-fluorophenethyl)-2-isopropoxy-5-(5-methyl-1,3,4-oxadiazol-2-yl)nicotinamide] |
| 2.7 | Cc1nnc(-c2c(CCc3ccc(F)cc3)nc(CC(C)C)c(C(N)=O)c2-c2ccc(C(=O)N[C@@H]3CCc4c(F)cccc43)s2)o1 [Compound 119, (R)-4-(5-((4-fluoro-2,3-dihydro-1H-inden-1-yl)carbamoyl)thiophen-2-yl)-6-(4-fluorophenethyl)-2-isobutyl-5-(5-methyl-1,3,4-oxadiazol-2-yl)nicotinamide] |
| 85 | Cc1nnc(-c2c(CCc3ccc(F)cc3)nc(CC(C)C)c(C(N)=O)c2-c2ccc(C(=O)NCc3ccccc3)s2)o1 [Compound 115, N-benzyl-5-{5-carbamoyl-2-[2-(p-fluorophenyl)ethyl]-6-isobutyl-3-(5-methyl-1,3,4-oxadiazol-2-yl)-4-pyridyl}-2-thenamide] |
